How the values were obtained:
[1] = biological target: T1, Prostaglandin D2 receptor 2 (Homo sapiens, UniProt Q9Y5Y4); test: Displacement of [3HPGD2 from human CRTH2 receptor expressed in CHO cell membrane after 90 mins by scintillation proximity assay; format: cell membranes
T1 sequence (Q9Y5Y4 whole entry): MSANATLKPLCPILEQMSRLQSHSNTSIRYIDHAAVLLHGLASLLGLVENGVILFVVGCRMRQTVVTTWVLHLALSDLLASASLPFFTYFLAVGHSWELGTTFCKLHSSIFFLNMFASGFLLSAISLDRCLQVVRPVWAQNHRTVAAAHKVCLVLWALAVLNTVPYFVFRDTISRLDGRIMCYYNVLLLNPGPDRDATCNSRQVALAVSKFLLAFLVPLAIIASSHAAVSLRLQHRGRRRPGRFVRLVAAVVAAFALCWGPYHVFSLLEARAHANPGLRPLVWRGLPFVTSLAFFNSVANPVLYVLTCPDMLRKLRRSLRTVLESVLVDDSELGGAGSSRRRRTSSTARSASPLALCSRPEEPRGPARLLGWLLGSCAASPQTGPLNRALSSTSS

Cytochrome P450 1A2 = biological target: T2, Cytochrome P450 1A2 (Homo sapiens, UniProt P05177); test: Inhibition of human recombinant CYP1A2 incubated for 15 mins prior to substrate addition measured after 30 mins by spectrophotometry; format: ADME
T2 sequence (P05177 whole entry): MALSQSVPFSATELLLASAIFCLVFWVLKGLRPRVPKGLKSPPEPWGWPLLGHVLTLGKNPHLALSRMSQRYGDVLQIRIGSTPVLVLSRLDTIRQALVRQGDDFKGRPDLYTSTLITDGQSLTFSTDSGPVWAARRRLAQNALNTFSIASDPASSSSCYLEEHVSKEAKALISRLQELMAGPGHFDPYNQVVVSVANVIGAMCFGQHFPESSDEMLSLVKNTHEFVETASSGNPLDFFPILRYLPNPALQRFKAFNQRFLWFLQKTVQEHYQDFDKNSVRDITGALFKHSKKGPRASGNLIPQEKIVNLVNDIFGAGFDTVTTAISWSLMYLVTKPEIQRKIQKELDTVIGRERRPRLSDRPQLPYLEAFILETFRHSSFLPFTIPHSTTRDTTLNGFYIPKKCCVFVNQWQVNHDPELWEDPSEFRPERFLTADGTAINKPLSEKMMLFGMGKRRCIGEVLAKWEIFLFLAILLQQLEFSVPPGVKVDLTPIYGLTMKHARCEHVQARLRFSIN

Cytochrome P450 2B6 = biological target: T3, Cytochrome P450 2B6 (Homo sapiens, UniProt P20813); test: Inhibition of human recombinant CYP2B6 incubated for 15 mins prior to substrate addition measured after 30 mins by spectrophotometry; format: ADME
T3 sequence (P20813 whole entry): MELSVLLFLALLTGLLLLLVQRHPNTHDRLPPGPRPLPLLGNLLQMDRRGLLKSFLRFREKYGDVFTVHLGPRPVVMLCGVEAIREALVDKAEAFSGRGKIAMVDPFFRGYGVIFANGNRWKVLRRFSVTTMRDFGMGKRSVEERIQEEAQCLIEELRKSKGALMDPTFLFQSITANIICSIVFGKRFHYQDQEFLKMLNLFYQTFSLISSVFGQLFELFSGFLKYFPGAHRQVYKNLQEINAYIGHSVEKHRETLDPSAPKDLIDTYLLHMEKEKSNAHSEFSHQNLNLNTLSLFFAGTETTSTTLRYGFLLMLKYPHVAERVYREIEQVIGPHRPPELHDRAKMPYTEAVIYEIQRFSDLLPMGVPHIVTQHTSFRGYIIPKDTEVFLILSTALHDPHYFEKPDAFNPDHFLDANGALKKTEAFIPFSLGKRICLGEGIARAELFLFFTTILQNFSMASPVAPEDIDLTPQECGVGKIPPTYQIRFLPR

Cytochrome P450 3A4 = Cytochrome P450 3A4 (Homo sapiens, UniProt P08684); test: Inhibition of human recombinant CYP3A4 incubated for 15 mins prior to substrate addition measured after 30 mins by spectrophotometry; format: ADME
Cytochrome P450 3A4, sequence (P08684 whole entry): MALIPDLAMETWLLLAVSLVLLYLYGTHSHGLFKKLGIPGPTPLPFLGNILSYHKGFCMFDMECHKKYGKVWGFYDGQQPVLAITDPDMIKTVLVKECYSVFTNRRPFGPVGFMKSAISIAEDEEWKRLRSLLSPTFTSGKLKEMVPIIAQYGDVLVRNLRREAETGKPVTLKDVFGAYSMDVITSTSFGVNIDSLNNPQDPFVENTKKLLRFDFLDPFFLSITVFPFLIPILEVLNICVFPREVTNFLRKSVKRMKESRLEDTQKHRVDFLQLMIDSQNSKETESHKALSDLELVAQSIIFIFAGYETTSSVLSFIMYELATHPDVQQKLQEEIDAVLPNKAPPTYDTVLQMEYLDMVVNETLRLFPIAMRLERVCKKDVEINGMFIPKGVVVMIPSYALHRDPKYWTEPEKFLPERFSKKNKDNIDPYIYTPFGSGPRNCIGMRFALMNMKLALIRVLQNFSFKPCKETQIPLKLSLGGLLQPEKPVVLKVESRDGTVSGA

Cytochrome P450 2D6 = Cytochrome P450 2D6 (Homo sapiens, UniProt P10635); test: Inhibition of human recombinant CYP2D6 incubated for 15 mins prior to substrate addition measured after 30 mins by spectrophotometry; format: ADME
Cytochrome P450 2D6, sequence (P10635 whole entry): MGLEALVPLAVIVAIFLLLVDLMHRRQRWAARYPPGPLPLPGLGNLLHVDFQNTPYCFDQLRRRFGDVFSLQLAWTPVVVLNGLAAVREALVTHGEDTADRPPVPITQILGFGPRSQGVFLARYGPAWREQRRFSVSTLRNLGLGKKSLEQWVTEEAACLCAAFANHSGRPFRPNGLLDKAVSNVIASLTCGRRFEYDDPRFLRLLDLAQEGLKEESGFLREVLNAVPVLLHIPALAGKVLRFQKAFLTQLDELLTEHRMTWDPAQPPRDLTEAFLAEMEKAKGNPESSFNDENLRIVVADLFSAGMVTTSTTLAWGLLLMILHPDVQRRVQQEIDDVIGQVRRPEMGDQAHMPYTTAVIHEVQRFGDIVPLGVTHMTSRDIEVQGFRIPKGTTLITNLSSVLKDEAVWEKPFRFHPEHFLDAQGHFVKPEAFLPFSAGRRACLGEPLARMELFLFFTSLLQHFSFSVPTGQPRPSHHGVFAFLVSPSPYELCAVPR

[2] = Intrinsic clearance in human liver microsomes assessed per mg protein at 1 uM up to 45 mins by LC/MS analysis; format: ADME, Microsome; details: read-out: CLH
[3] = Intrinsic clearance in rat liver microsomes assessed per mg protein at 1 uM up to 45 mins by LC/MS analysis; format: ADME, Microsome; details: read-out: CLH
Cytochrome P450 2C8 = biological target: T4, Cytochrome P450 2C8 (Homo sapiens, UniProt P10632); test: Inhibition of human recombinant CYP2C8 incubated for 15 mins prior to substrate addition measured after 30 mins by spectrophotometry; format: ADME
T4 sequence (P10632 whole entry): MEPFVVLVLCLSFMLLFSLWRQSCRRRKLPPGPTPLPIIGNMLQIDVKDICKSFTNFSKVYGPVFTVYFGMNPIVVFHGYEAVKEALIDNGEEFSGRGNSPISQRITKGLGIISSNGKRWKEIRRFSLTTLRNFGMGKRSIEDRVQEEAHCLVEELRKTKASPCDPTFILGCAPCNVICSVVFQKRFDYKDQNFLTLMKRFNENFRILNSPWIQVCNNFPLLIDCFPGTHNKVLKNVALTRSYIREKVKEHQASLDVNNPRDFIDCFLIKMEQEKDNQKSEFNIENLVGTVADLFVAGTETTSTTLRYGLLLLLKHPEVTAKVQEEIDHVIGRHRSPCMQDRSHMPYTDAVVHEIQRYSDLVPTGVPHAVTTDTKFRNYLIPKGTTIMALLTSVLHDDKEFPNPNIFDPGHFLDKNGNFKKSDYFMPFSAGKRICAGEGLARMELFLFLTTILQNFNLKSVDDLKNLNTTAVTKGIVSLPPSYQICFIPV

Cytochrome P450 2C9 = Cytochrome P450 2C9 (Homo sapiens, UniProt P11712); test: Inhibition of human recombinant CYP2C9 incubated for 15 mins prior to substrate addition measured after 30 mins by spectrophotometry; format: ADME
Cytochrome P450 2C9, sequence (P11712 whole entry): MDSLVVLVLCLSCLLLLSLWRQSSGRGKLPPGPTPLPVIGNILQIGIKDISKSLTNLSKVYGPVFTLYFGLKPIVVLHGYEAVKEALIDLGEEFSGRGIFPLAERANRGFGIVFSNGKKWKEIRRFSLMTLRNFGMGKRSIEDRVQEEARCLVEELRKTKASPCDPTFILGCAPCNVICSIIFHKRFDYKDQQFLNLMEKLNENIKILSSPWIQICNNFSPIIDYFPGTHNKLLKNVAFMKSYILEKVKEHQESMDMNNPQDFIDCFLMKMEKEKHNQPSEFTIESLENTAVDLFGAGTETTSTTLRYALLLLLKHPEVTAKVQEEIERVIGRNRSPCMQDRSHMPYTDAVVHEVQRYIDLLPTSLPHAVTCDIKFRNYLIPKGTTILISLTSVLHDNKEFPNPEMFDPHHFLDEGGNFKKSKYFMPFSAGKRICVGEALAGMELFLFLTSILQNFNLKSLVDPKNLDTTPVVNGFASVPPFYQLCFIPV

Cytochrome P450 2C19 = Cytochrome P450 2C19 (Homo sapiens, UniProt P33261); test: Inhibition of human recombinant CYP2C19 incubated for 15 mins prior to substrate addition measured after 30 mins by spectrophotometry; format: ADME
Cytochrome P450 2C19, sequence (P33261 whole entry): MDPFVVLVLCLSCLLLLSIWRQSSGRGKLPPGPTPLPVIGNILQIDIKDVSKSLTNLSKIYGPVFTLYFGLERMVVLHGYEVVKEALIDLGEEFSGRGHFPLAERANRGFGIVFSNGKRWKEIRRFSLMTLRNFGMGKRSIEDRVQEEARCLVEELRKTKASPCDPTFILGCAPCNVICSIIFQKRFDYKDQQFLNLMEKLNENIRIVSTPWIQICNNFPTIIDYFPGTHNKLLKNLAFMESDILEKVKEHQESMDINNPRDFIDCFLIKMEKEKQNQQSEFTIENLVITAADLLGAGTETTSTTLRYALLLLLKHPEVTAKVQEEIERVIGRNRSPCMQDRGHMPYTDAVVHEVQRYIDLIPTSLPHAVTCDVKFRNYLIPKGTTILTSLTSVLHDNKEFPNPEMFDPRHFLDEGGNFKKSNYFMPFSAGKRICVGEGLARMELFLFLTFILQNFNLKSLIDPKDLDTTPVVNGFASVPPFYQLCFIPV

[4] = biological target: T5, Prostaglandin D2 receptor 2 (Homo sapiens) (UniProt Q9Y5Y4); test: Agonist activity at human CRTH2 receptor expressed in CHO cell membrane assessed as induction of [35S]GTPgammaS binding at 20 uM after 30 mins by microbeta scintillation counting relative to PGD2; format: functional, cell membranes
T5 sequence (whole entry): T1 sequence (Q9Y5Y4 whole entry)

[5] = biological target: T1, Prostaglandin D2 receptor 2; test: Antagonist activity at human CRTH2 receptor expressed in CHO cell membrane assessed as inhibition of PGD2-induced [35S]GTPgammaS binding after 30 mins by microbeta scintillation counting; format: functional, cell membranes
[6] = biological target: T5, Prostaglandin D2 receptor 2 (Homo sapiens); test: Antagonist activity at human CRTH2 receptor expressed in CHO cell membrane assessed as inhibition of PGD2-induced [35S]GTPgammaS binding at 2 uM after 30 mins by microbeta scintillation counting relative to control; format: functional, cell membranes
[7] = Apparent permeability across human Caco2 cells at 1 uM after 2 hrs by LC/MS analysis; format: ADME, cell-based; details: Caco-2
[8] = Half life in C57BL/6 mouse at 1 mg/kg, iv; format: ADME, organism-based; set-up: dose 1 mg/kg, route intravenous; details: in vivo
[9] = Volume of distribution at steady state in C57BL/6 mouse at 1 mg/kg, iv and 5 mg/kg, po; format: ADME, organism-based; details: in vivo, read-out: Vdss

| Structure (SMILES) | Ki [1] | IC50 (Cytochrome P450 1A2) | IC50 (Cytochrome P450 2B6) | IC50 (Cytochrome P450 3A4) | IC50 (Cytochrome P450 2D6) | microsomal CLint at 1 µM [2] | microsomal CLint at 1 µM [3] | IC50 (Cytochrome P450 2C8) | IC50 (Cytochrome P450 2C9) | IC50 (Cytochrome P450 2C19) | Emax [4] | IC50 [5] | inhibition [6] | Papp at 2 h, 1 µM [7] | half-life [8] | Vd [9] |
| --- | --- | --- | --- | --- | --- | --- | --- | --- | --- | --- | --- | --- | --- | --- | --- | --- |
| CCCCC(=O)N(Cc1ccc(OC(F)(F)F)cc1)c1cc(F)cc(-c2nnn[nH]2)c1 | 0.0077 µM | > 10 µM | > 10 µM | > 10 µM | > 10 µM | – | – | – | – | – | – | – | – | – | – | – |
| CCCCC(=O)N(Cc1ccc(C(F)(F)F)cc1)c1cc(F)cc(-c2nnn[nH]2)c1 | 0.0024 µM | > 10 µM | > 10 µM | > 10 µM | > 10 µM | – | – | – | – | – | – | – | – | – | – | – |
| CCC(=O)N(Cc1ccc(C(F)(F)F)cc1)c1cccc(-c2nnn[nH]2)c1 | 0.11 µM | > 10 µM | > 10 µM | > 10 µM | > 10 µM | – | – | – | – | – | – | – | – | – | – | – |
| CCC(=O)N(Cc1ccc(OC(F)(F)F)cc1)c1cc(F)cc(-c2nnn[nH]2)c1 | 0.0069 µM | > 10 µM | > 10 µM | > 10 µM | > 10 µM | < 10 µL/min/mg | 12 µL/min/mg | 0.043 µM | 0.2 µM | 0.051 µM | – | – | – | – | – | – |
| CCCCC(=O)N(Cc1cccc(OC(F)(F)F)c1)c1cc(F)cc(-c2nnn[nH]2)c1 | 0.0045 µM | > 10 µM | > 10 µM | > 10 µM | > 10 µM | – | – | – | – | – | – | – | – | – | – | – |
| CCCCC(=O)N(Cc1ccc(OC(F)(F)F)cc1)c1cc(Cl)cc(-c2nnn[nH]2)c1 | 0.019 µM | > 10 µM | > 10 µM | > 10 µM | > 10 µM | – | – | – | – | – | -10% | 0.02 µM | 112% | – | – | – |
| CCC(=O)N(Cc1ccc(C(F)(F)F)cc1)c1cc(F)cc(-c2nnn[nH]2)c1 | 0.0057 µM | > 10 µM | > 10 µM | > 10 µM | > 10 µM | < 10 µL/min/mg | < 10 µL/min/mg | 0.086 µM | 0.28 µM | 0.038 µM | -8% | 0.037 µM | 105% | 3 ×10⁻⁶ cm/s | 1.4 h | 0.9 L/kg |
| CCC(=O)N(Cc1cccc(C(F)(F)F)c1)c1cccc(-c2nnn[nH]2)c1 | 0.22 µM | > 10 µM | > 10 µM | > 10 µM | > 10 µM | – | – | – | – | – | – | – | – | – | – | – |

— ChEMBL document CHEMBL2034935, “Discovery of a Novel Series of CRTH2 (DP2) Receptor Antagonists Devoid of Carboxylic Acids” (ACS Med Chem Lett, 2011)
